This test has as its system S aureus A798. Description: Minimal inhibitory concentration (MIC), microdilution method in cation-adjusted Mueller-Hinton Broth following NCCLS guidelines. The class given is cell-based. Particulars: pH of test medium 7.2-7.3. Put shortly:
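MICs (mg/l) came from NCCLS-guided microdilution, using cation-adjusted Mueller-Hinton medium adjusted to pH 7.2-7.3.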
(In broth dilution the organism is exposed to a series of concentrations in liquid medium.)

Converted amounts (≈) assume the structure as drawn. Some results are limits rather than exact numbers.

Experimental findings from US8217029B2, “Oxazolidinone antibiotics” (Actelion Pharmaceuticals Ltd, priority 2007, dated 2012) are described below.

The term MIC denotes the lowest concentration that inhibits growth of the organism. Read a high MIC as weaker potency. The compound `COc1ccc2nccc(N3CCN(C[C@@H]4CN(c5ccc(C)c(F)c5)C(=O)O4)CC3)c2n1` [Example 36, (R)-3-(3-Fluoro-4-methyl-phenyl)-5-[4-(6-methoxy-[1,5]naphthyridin-4-yl)-piperazin-1-ylmethyl]-oxazolidin-2-one] had an MIC of at most 0.031 µg/mL. As to `COc1ccc2nccc(N3CCN(C[C@H]4CN(c5ccc6c(c5)OCCO6)C(=O)O4)CC3)c2n1` [Example 37, (S)-3-(2,3-Dihydro-benzo[1,4]dioxin-6-yl)-5-[4-(6-methoxy-[1,5]naphthyridin-4-yl)-piperazin-1-ylmethyl]-oxazolidin-2-one], the lowest concentration to inhibit growth (MIC) was 0.063 µg/mL (≈ 0.132 µM). Same read-out and setting: the figure for `COc1ccc2nccc(N3CCN(C[C@H]4CN(c5ccc(C)c(F)c5)C(=O)O4)CC3)c2n1` [Example 38, (S)-3-(3-Fluoro-4-methyl-phenyl)-5-[4-(6-methoxy-[1,5]naphthyridin-4-yl)-piperazin-1-ylmethyl]-oxazolidin-2-one] is 0.063 µg/mL (≈ 0.14 µM). The compound `COc1ccc2nccc(N3CCN(C[C@H]4CN(c5ccc6c(c5)NC(=O)CS6)C(=O)O4)CC3)c2n1` [Example 39, 6-{(S)-5-[4-(6-Methoxy-[1,5]naphthyridin-4-yl)-piperazin-1-ylmethyl]-2-oxo-oxazolidin-3-yl}-4H-benzo[1,4]thiazin-3-one] registered an MIC of at most 0.031 µg/mL. On the same count and under the same terms, the same measure for `COc1ccc2nccc(N3CCN(C[C@H]4CN(c5cccc(F)c5)C(=O)O4)CC3)c2n1` [Example 40, (S)-3-(3-Fluoro-phenyl)-5-[4-(6-methoxy-[1,5]naphthyridin-4-yl)-piperazin-1-ylmethyl]-oxazolidin-2-one]: 0.125 µg/mL (≈ 0.286 µM); for `COc1ccc2nccc(N3CC[C@H](NC[C@@H]4CN(c5ccc6c(c5)OCCO6)C(=O)O4)C3)c2n1` [Example 41, (R)-3-(2,3-Dihydro-benzo[1,4]dioxin-6-yl)-5-{[(S)-1-(6-methoxy-[1,5]naphthyridin-4-yl)-pyrrolidin-3-ylamino]-methyl}-oxazolidin-2-one]: at most 0.031 µg/mL; for `COc1ccc2nccc(N3CC[C@@H](NC[C@@H]4CN(c5ccc6c(c5)OCCO6)C(=O)O4)C3)c2n1` [Example 42, (R)-3-(2,3-Dihydro-benzo[1,4]dioxin-6-yl)-5-{[(R)-1-(6-methoxy-[1,5]naphthyridin-4-yl)-pyrrolidin-3-ylamino]-methyl}-oxazolidin-2-one]: at most 0.031 µg/mL. On the same count and under the same terms, the same measure for `COc1ccc2ncc(F)c(N3CC(NC[C@@H]4CN(c5ccc6c(c5)NC(=O)CO6)C(=O)O4)C3)c2n1` [Example 45, 6-((R)-5-{[1-(3-Fluoro-6-methoxy-[1,5]naphthyridin-4-yl)-azetidin-3-ylamino]-methyl}-2-oxo-oxazolidin-3-yl)-4H-benzo[1,4]oxazin-3-one]: at most 0.031 µg/mL; for `COc1ccc2ncc(F)c(N3CC(NC[C@@H]4CN(c5ccc(C)c(F)c5)C(=O)O4)C3)c2n1` [Example 46, (R)-5-{[1-(3-Fluoro-6-methoxy-[1,5]naphthyridin-4-yl)-azetidin-3-ylamino]-methyl}-3-(3-fluoro-4-methyl-phenyl)-oxazolidin-2-one]: at most 0.031 µg/mL. Same read-out and setting: the same measure for `COc1ccc2ncc(F)c(N3CC(NC[C@@H]4CN(c5ccc6c(c5)OCCO6)C(=O)O4)C3)c2n1` [Example 47, (R)-3-(2,3-Dihydro-benzo[1,4]dioxin-6-yl)-5-{[1-(3-fluoro-6-methoxy-[1,5]naphthyridin-4-yl)-azetidin-3-ylamino]-methyl}-oxazolidin-2-one]: at most 0.031 µg/mL; for `COc1ccc2ncc(F)c(N3CC(NC[C@@H]4CN(c5ccc6c(c5)NC(=O)CS6)C(=O)O4)C3)c2n1` [Example 48, 6-((R)-5-{[1-(3-Fluoro-6-methoxy-[1,5]naphthyridin-4-yl)-azetidin-3-ylamino]-methyl}-2-oxo-oxazolidin-3-yl)-4H-benzo[1,4]thiazin-3-one]: at most 0.031 µg/mL.

On to `COc1ccc2nccc(N3CC(NC[C@@H]4CN(c5ccc6c(c5)NC(=O)CS6)C(=O)O4)C3)c2c1` [Example 49, 6-((R)-5-{[1-(6-Methoxy-quinolin-4-yl)-azetidin-3-ylamino]-methyl}-2-oxo-oxazolidin-3-yl)-4H-benzo[1,4]thiazin-3-one], for which the MIC is at most 0.031 µg/mL. Same read-out and setting: the figure for `COc1ccc2nccc(N3CC(NC[C@@H]4CN(c5ccc(C)c(F)c5)C(=O)O4)C3)c2n1` [Example 50, (R)-3-(3-Fluoro-4-methyl-phenyl)-5-{[1-(6-methoxy-[1,5]naphthyridin-4-yl)-azetidin-3-ylamino]-methyl}-oxazolidin-2-one] is at most 0.031 µg/mL; for `COc1ccc2nccc(N3CC(NC[C@@H]4CN(c5ccc6c(c5)OCCO6)C(=O)O4)C3)c2n1` [Example 51, (R)-3-(2,3-Dihydro-benzo[1,4]dioxin-6-yl)-5-{[1-(6-methoxy-[1,5]naphthyridin-4-yl)-azetidin-3-ylamino]-methyl}-oxazolidin-2-one] it is at most 0.031 µg/mL; for `COc1ccc2nccc(N3CC(NC[C@@H]4CN(c5ccc6c(c5)NC(=O)CO6)C(=O)O4)C3)c2n1` [Example 52, 6-((R)-5-{[1-(6-Methoxy-[1,5]naphthyridin-4-yl)-azetidin-3-ylamino]-methyl}-2-oxo-oxazolidin-3-yl)-4H-benzo[1,4]oxazin-3-one] it is at most 0.031 µg/mL. Same read-out and setting: the figure for `COc1ccc2nccc(N3CC(NC[C@@H]4CN(c5ccc6c(c5)NC(=O)CS6)C(=O)O4)C3)c2n1` [Example 53, 6-((R)-5-{[1-(6-Methoxy-[1,5]naphthyridin-4-yl)-azetidin-3-ylamino]-methyl}-2-oxo-oxazolidin-3-yl)-4H-benzo[1,4]thiazin-3-one] is at most 0.031 µg/mL; for `COc1ccc2ncnc(N3CC(NC[C@@H]4CN(c5ccc6c(c5)NC(=O)CO6)C(=O)O4)C3)c2c1` [Example 54, 6-((R)-5-{[1-(6-Methoxy-quinazolin-4-yl)-azetidin-3-ylamino]-methyl}-2-oxo-oxazolidin-3-yl)-4H-benzo[1,4]oxazin-3-one] it is at most 0.031 µg/mL. Still for that read-out and setting: the same measure for `COc1ccc2ncnc(N3CC(NC[C@@H]4CN(c5ccc6c(c5)NC(=O)CS6)C(=O)O4)C3)c2c1` [Example 55, 6-((R)-5-{[1-(6-Methoxy-quinazolin-4-yl)-azetidin-3-ylamino]-methyl}-2-oxo-oxazolidin-3-yl)-4H-benzo[1,4]thiazin-3-one]: at most 0.031 µg/mL; for `COc1ccc2nccc(N3CC(N(C)C[C@@H]4CN(c5ccc6c(c5)NC(=O)CS6)C(=O)O4)C3)c2n1` [Example 56, 6-[(R)-5-({[1-(6-Methoxy-[1,5]naphthyridin-4-yl)-azetidin-3-yl]-methyl-amino}-methyl)-2-oxo-oxazolidin-3-yl]-4H-benzo[1,4]thiazin-3-one]: at most 0.031 µg/mL; for `COc1ccc2nccc(N3CC(NC[C@H]4CN(c5ccc6c(c5)NC(=O)CS6)C(=O)O4)C3)c2n1` [Example 57, 6-((S)-5-{[1-(6-Methoxy-[1,5]naphthyridin-4-yl)-azetidin-3-ylamino]-methyl}-2-oxo-oxazolidin-3-yl)-4H-benzo[1,4]thiazin-3-one]: at most 0.031 µg/mL.

`COc1ccc2nccc(N3CC(CNC[C@H]4CN(c5ccc6c(c5)NC(=O)CS6)C(=O)O4)C3)c2n1` [Example 59, 6-[(S)-5-({[1-(6-Methoxy-[1,5]naphthyridin-4-yl)-azetidin-3-ylmethyl]-amino}-methyl)-2-oxo-oxazolidin-3-yl]-4H-benzo[1,4]thiazin-3-one] had an MIC of at most 0.031 µg/mL. For `COc1ccc2nccc(N3CC[C@H](NC(=O)[C@@H]4CN(c5ccc6c(c5)OCCO6)C(=O)O4)C3)c2n1` [Example 60, (S)-3-(2,3-Dihydro-benzo[1,4]dioxin-6-yl)-2-oxo-oxazolidine-5-carboxylic acid [(S)-1-(6-methoxy-[1,5]naphthyridin-4-yl)-pyrrolidin-3-yl]-amide], the MIC was at most 0.031 µg/mL. In turn, `COc1ccc2nccc(N3CC[C@@H](NC(=O)[C@@H]4CN(c5ccc6c(c5)OCCO6)C(=O)O4)C3)c2n1` [Example 61, (S)-3-(2,3-Dihydro-benzo[1,4]dioxin-6-yl)-2-oxo-oxazolidine-5-carboxylic acid [(R)-1-(6-methoxy-[1,5]naphthyridin-4-yl)-pyrrolidin-3-yl]-amide] came in with an MIC of at most 0.031 µg/mL. The same measure, in the same setting: the same measure for `COc1ccc2nccc(N3CC[C@@H](NC(=O)[C@@H]4CN(c5ccc(C)c(F)c5)C(=O)O4)C3)c2n1` [Example 62, (S)-3-(3-Fluoro-4-methyl-phenyl)-2-oxo-oxazolidine-5-carboxylic acid [(R)-1-(6-methoxy-[1,5]naphthyridin-4-yl)-pyrrolidin-3-yl]-amide]: at most 0.031 µg/mL. As for `COc1ccc2nccc(N3CC[C@H](NC(=O)[C@@H]4CN(c5ccc(C)c(F)c5)C(=O)O4)C3)c2n1` [Example 63, (S)-3-(3-Fluoro-4-methyl-phenyl)-2-oxo-oxazolidine-5-carboxylic acid [(S)-1-(6-methoxy-[1,5]naphthyridin-4-yl)-pyrrolidin-3-yl]-amide], the minimum inhibitory concentration (MIC) was determined as 0.25 µg/mL (≈ 0.537 µM). On the same count and under the same terms, the figure for `COc1ccc2ncc(F)c(N3CC[C@H](NC[C@@H]4CN(c5ccc6c(c5)NC(=O)CO6)C(=O)O4)C3)c2n1` [Example 64, 6-((R)-5-{[(S)-1-(3-Fluoro-6-methoxy-[1,5]naphthyridin-4-yl)-pyrrolidin-3-ylamino]-methyl}-2-oxo-oxazolidin-3-yl)-4H-benzo[1,4]oxazin-3-one] is at most 0.031 µg/mL; for `COc1ccc2ncc(F)c(N3CC[C@H](NC[C@@H]4CN(c5ccc6c(c5)NC(=O)CS6)C(=O)O4)C3)c2n1` [Example 65, 6-((R)-5-{[(S)-1-(3-Fluoro-6-methoxy-[1,5]naphthyridin-4-yl)-pyrrolidin-3-ylamino]-methyl}-2-oxo-oxazolidin-3-yl)-4H-benzo[1,4]thiazin-3-one] it is at most 0.031 µg/mL. For `COc1ccc2ncc(F)c(N3CC[C@H](NC[C@@H]4CN(c5ccc6c(c5)OCCO6)C(=O)O4)C3)c2n1` [Example 66, (R)-3-(2,3-Dihydro-benzo[1,4]dioxin-6-yl)-5-{[(5)-1-(3-fluoro-6-methoxy-[1,5]naphthyridin-4-yl)-pyrrolidin-3-ylamino]-methyl}-oxazolidin-2-one], the “MIC S aureus A798” value is “<=0.031 mg/l”. `COc1ccc2nccc(N3CC[C@H](NC[C@@H]4CN(c5ccc(C)c(F)c5)C(=O)O4)C3)c2n1` [Example 67, (R)-3-(3-Fluoro-4-methyl-phenyl)-5-{[(S)-1-(6-methoxy-[1,5]naphthyridin-4-yl)-pyrrolidin-3-ylamino]-methyl}-oxazolidin-2-one] came in with an MIC of 0.063 µg/mL (≈ 0.14 µM).
